# Measurements from US8158804B2, “Chelating agents” (GE Healthcare AS, priority 2007, dated 2012).
# What was measured:
# [1] = Stability of gadolinium chelates, spectrophotometric (UV absorbance vs pH) method; assay type: physicochemical; details: chelant with 1 equivalent of gadolinium (III); calculated from UV absorbance as a function of pH
# Description: Stabilities of the gadolinium complexes of the chelates were measured by a spectrophotometric method using the principle that there is a change in UV absorbance of these compounds as the hydroxyl group on the pyridinone ring deprotonates. There is a significant decrease in the wavelength of the UV maximum as the proton is removed. The UV absorbance of the chelants at different pH's was determined to measure the UV absorbance at different degrees of protonation. The measurements were then repeated in the presence of 1 equivalent of gadolinium (III) and the effect on the UV absorbtion as a function of pH measured. A software program was used to analyze the data and calculate the affinity of the chelates for gadolinium.
# [2] = Solubility of gadolinium chelates in water by HPLC analysis; assay type: physicochemical; details: aqueous solution at 20° C.; for Water solubility of chelate: equilibration by shaking for a few hours
# Description: The solubility of the gadolinium chelates in table 2 was measured by HPLC analysis of the concentrations of compound in aqueous solutions at 20° C. after equilibration by shaking for a few hours. […] This indicated the saturation point of the solution.
# [3] = Reference 1; cited from earlier work
# [4] = Measurement of longitudinal relaxivity (T1 by inversion recovery method); assay type: physicochemical
# Description: T1 was measured by the inversion recovery method as described by Timothy D. W. Claridge, in “High-Resolution NMR Techniques in Organic Chemistry” Pergamon Amsterdam 1999, 26-30.
compound,measurement,setting,value
"COCCn1ccc(=O)c(O)c1C(=O)NCCCC(CCCNC(=O)c1c(O)c(=O)ccn1CCOC)(CCCNC(=O)c1c(O)c(=O)ccn1CCOC)NC(=O)c1ccccc1 [Example 11, Tris((3-hydroxy-1-(2-methoxyethyl)-4-oxo-4H-pyridin-2-yl)-carboxyaminopropyl)-phenylcarboxyaminomethane]",Gd Chelate STABILITY CONSTANT (LogKGdL),[1],15.716
Bis aquo tris(-3-hydroxy-1-(2-hydroxyethyl)-4-oxo-4H-pyridin-2yl-)carboxyaminoeth-2-yl)-amine gadolinium (III) salt [Example 4],Water solubility of chelate,[2],<500 µg/mL
same,Gd Chelate STABILITY CONSTANT (LogKGdL),[1],17.929
"O=C(NCCN(CCNC(=O)c1occc(=O)c1O)CCNC(=O)c1occc(=O)c1O)c1occc(=O)c1O [Standard, reference compound]",pGd,[3],19.27
same,Gd Chelate STABILITY CONSTANT (LogKGdL),[1],18.650
O=C(NC(CCCNC(=O)c1c(O)c(=O)ccn1CCO)(CCCNC(=O)c1c(O)c(=O)ccn1CCO)CCCNC(=O)c1c(O)c(=O)ccn1CCO)c1ccccc1 [Example 12],Gd Chelate STABILITY CONSTANT (LogKGdL),[1],18.284
Bis aquo tris(3-hydroxy-1-(2-methoxyethyl)-4-oxo-4H-pyridin-2yl-)carboxyaminoeth-2-yl)amine gadolinium (III) salt [Example 1e],r1 at 10 MHz,[4]; 10 MHz,9.7 mM⁻¹ s⁻¹
same,r1 at 20 MHz,[4]; 20 MHz,11.6 mM⁻¹ s⁻¹
same,r1 at 60 MHz,[4]; 60 MHz,9.5 mM⁻¹ s⁻¹
same,Water solubility of chelate,[2],<500 µg/mL
"Bis aquo tris((3-hydroxy-1-(2,3,4-trihydroxybutane)-4-oxo-4H-pyridin-2yl-)carboxyaminoeth-2-yl)amine gadolinium (III) salt [Example 7]",Water solubility of chelate (kinetic solubility),"[2]; kinetic solubility, some compound precipitates on standing","~10 mg/ml* *Kinetic solubility, but some compound precipitates on standing"
"COCCn1ccc(=O)c(O)c1C(=O)NCC1CC(CNC(=O)c2c(O)c(=O)ccn2CCOC)CC(CNC(=O)c2c(O)c(=O)ccn2CCOC)C1 (stereo not drawn) [Example 3, Cis, cis 1,3,5,tris((3-hydroxy-1-(2-methoxyethyl)-4-oxo-4H-pyrid-2yl-)carboxyaminomethyl)-cyclohexane]",Gd Chelate STABILITY CONSTANT (LogKGdL),[1],21.287
"Bis aquo tris((3-hydroxy-1-(2,3,4,5,6-pentahydroxyhexane)-4-oxo-4H-pyridin-2yl-]carboxyaminoeth-2-yl)amine gadolinium (III) [Example 8]",Water solubility of chelate,[2],>200000 µg/mL
Bis aquo tris((3-hydroxy-1-(2-(2-hydroxyethoxy)ethyl)-4-oxo-4H-pyridin-2yl-)carboxyaminoeth-2-yl)amine gadolinium (III) salt [Example 5],Water solubility of chelate,[2],<1000 µg/mL
"Bis aquo tris((3-hydroxy-1-(2,3-dihydroxypropane)-4-oxo-4H-pyrid-2yl-)carboxyaminoeth-2-yl)-amine gadolinium (III) salt [Example 6]",Water solubility of chelate,[2],3400 µg/mL
